The record followed here is US20240398811A1, “PRC2 INHIBITORS FOR USE IN TREATING BLOOD DISORDERS” (ORIC Pharmaceuticals, Inc., priority 2021, published 2024).

pIC50: −log10 of the molar value. Bounds are passed on as bounds.

For this assay, the target named is purified human, His-tagged PRC2 complex (Homo sapiens (Human), UniProt O75530). The experiment in a line: Hot Spot HMT assay, inhibition of PRC2 enzymatic activity. The following applies: 10 nM PRC2 complex, 1 μM 3H-SAM, core histone H3, 10-point dose-response. In kind it is biochemical. The essentials: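 Methyl transfer from 1 μM tritiated SAM onto 0.05 mg/ml core histone H3, catalysed by 10 nM His/Flag-tagged human PRC2 holoenzyme, was run 1 hr at 30° C after a 20 min compound preincubation. Serial dilutions began at 1.0 μM; product captured on filters and counted.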
purified human, His-tagged PRC2 complex, sequence (O75530 whole entry): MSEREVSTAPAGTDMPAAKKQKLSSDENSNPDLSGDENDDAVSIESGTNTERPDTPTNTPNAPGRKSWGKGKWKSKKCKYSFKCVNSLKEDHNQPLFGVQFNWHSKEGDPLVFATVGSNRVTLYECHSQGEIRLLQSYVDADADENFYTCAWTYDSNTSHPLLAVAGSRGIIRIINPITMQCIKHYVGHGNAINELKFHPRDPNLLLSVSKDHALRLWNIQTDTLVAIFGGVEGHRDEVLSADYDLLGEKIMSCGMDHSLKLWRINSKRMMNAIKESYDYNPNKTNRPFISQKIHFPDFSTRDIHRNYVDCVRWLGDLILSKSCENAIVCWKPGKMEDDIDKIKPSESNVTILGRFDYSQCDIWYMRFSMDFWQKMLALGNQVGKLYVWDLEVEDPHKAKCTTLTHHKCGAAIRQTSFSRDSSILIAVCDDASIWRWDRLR
purified human, His-tagged PRC2 complex, sequence (Q15910 whole entry partner): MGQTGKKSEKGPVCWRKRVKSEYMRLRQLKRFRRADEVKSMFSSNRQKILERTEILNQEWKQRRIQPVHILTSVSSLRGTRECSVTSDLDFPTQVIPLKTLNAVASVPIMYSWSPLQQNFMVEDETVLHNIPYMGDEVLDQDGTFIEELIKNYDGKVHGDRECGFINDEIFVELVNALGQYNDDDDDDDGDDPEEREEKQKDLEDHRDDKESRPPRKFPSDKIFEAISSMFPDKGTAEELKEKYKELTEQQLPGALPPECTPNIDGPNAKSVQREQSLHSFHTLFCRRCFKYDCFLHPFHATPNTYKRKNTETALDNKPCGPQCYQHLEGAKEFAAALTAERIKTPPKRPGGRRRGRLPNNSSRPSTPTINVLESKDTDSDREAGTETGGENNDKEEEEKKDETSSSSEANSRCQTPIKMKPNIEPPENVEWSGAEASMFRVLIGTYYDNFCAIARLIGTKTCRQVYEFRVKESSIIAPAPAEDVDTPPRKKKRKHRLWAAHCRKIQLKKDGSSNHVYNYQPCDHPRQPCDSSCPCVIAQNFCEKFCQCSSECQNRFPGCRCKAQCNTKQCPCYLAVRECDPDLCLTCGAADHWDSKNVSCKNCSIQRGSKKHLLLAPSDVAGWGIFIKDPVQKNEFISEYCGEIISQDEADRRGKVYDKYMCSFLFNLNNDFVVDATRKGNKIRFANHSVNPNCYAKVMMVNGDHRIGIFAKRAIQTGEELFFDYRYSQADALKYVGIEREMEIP
purified human, His-tagged PRC2 complex, sequence (Q15022 whole entry partner): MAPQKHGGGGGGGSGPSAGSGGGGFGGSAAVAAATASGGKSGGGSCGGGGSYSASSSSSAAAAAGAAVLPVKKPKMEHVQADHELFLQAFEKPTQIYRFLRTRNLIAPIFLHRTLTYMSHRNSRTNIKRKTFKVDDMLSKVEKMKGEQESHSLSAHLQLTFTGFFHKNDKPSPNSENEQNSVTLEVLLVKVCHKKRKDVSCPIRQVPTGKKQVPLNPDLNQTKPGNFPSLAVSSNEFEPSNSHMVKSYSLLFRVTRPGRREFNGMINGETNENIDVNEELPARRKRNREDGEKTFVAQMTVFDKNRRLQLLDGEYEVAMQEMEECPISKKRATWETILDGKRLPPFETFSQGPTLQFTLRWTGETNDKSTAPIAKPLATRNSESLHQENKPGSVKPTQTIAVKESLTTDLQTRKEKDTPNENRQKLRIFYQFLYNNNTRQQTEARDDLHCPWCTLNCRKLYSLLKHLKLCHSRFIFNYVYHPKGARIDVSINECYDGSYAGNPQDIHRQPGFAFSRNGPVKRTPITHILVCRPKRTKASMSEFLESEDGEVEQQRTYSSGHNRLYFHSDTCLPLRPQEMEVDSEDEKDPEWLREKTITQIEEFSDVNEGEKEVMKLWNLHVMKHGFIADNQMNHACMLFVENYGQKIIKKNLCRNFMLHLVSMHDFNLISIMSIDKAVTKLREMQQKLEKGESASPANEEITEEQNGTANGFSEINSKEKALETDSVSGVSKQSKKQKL
purified human, His-tagged PRC2 complex, sequence (Q6ZN18 whole entry partner): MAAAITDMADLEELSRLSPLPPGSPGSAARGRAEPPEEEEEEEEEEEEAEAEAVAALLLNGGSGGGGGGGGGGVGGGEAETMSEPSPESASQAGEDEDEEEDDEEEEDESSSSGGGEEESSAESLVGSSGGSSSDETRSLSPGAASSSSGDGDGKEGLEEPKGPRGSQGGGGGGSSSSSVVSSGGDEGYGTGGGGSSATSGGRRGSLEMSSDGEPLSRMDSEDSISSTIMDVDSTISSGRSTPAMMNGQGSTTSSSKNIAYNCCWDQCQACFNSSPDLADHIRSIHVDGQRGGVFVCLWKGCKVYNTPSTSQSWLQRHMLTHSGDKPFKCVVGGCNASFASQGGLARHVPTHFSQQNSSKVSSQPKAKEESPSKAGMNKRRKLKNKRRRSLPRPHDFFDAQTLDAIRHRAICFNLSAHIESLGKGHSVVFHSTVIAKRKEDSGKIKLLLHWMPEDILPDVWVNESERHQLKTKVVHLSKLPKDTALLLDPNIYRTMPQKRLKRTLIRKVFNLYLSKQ
purified human, His-tagged PRC2 complex, sequence (Q09028 whole entry partner): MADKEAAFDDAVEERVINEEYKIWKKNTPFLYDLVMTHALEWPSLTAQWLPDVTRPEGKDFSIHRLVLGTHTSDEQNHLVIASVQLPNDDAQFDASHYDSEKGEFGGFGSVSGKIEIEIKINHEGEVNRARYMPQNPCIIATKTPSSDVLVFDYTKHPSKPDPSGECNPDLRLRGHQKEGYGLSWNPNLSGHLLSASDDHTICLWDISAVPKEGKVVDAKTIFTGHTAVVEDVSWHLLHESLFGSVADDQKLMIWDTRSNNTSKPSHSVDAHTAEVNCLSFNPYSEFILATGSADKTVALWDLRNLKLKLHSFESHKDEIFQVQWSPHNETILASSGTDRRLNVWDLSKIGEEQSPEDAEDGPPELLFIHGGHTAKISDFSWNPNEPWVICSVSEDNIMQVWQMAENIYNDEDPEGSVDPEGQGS
`N#Cc1cn2c(NCc3c(F)ccc4c3CCO4)ncc(-c3ccc(C(=O)N4CCOCC4)cc3)c2n1` [Example 181, 5-(((5-fluoro-2,3-dihydrobenzofuran-4-yl)methyl)amino)-8-(4-(morpholine-4-carbonyl)phenyl)imidazo[1,2-c]pyrimidine-2-carbonitrile]: the negative logarithm of the IC50 (pIC50) was > 7.00.

`N#Cc1cn2c(NCc3c(F)ccc4c3CCO4)ncc(-c3cnn(CCO)c3)c2n1` [Example 182, 5-(((5-fluoro-2,3-dihydrobenzofuran-4-yl)methyl)amino)-8-(1-(2-hydroxyethyl)-1H-pyrazol-4-yl)imidazo[1,2-c]pyrimidine-2-carbonitrile]: the pIC50 was 6.30 to 7.00.

On to `N#Cc1cn2c(NCc3c(F)ccc4c3CCO4)ncc(-c3ccc(C(=O)O)cc3)c2n1` [Example 183, 4-(2-cyano-5-(((5-fluoro-2,3-dihydrobenzofuran-4-yl)methyl)amino)imidazo[1,2-c]pyrimidin-8-yl)benzoic acid], for which the pIC50 was > 7.00.

Consider `Cc1cc(S(=O)(=O)C(F)(F)F)ccc1-c1cnc(NCc2c(F)ccc3c2CCO3)n2cc(C#N)nc12` [Example 184, 5-(((5-fluoro-2,3-dihydrobenzofuran-4-yl)methyl)amino)-8-(2-methyl-4-((trifluoromethyl)sulfonyl)phenyl)imidazo[1,2-c]pyrimidine-2-carbonitrile], for which the pIC50 was 6.30 to 7.00.

Regarding `CNCc1ccc(-c2cnc(NCc3c(F)ccc4c3CCO4)n3cc(C#N)nc23)cc1` [Example 185, 5-(((5-fluoro-2,3-dihydrobenzofuran-4-yl)methyl)amino)-8-(4-((methylamino)methyl)phenyl)imidazo[1,2-c]pyrimidine-2-carbonitrile], the negative logarithm of the IC50 (pIC50) was > 7.00.

Turning to `CNC(=O)c1ccc(-c2cnc(NCc3c(F)ccc4c3CCO4)n3cc(C#N)nc23)cc1` [Example 186, 4-(2-cyano-5-(((5-fluoro-2,3-dihydrobenzofuran-4-yl)methyl)amino)imidazo[1,2-c]pyrimidin-8-yl)-N-methylbenzamide], the pIC50 is > 7.00.

`N#Cc1cn2c(NCc3c(F)ccc4c3CCO4)ncc(-c3ccccc3C#N)c2n1` [Example 187, 8-(2-cyanophenyl)-5-(((5-fluoro-2,3-dihydrobenzofuran-4-yl)methyl)amino)imidazo[1,2-c]pyrimidine-2-carbonitrile]: the negative-log IC50 (pIC50) is > 7.00.

Take `N#Cc1cc(-c2cnc(NCc3c(F)ccc4c3CCO4)n3cc(C#N)nc23)ccn1` [Example 188, 8-(2-cyanopyridin-4-yl)-5-(((5-fluoro-2,3-dihydrobenzofuran-4-yl)methyl)amino)imidazo[1,2-c]pyrimidine-2-carbonitrile]: the pIC50 was 6.30 to 7.00.

For `CN(C)CCOc1ccc(-c2cnc(NCc3c(F)ccc4c3CCO4)n3cc(C#N)nc23)cc1` [Example 189, 8-(4-(2-(dimethylamino)ethoxy)phenyl)-5-(((5-fluoro-2,3-dihydrobenzofuran-4-yl)methyl)amino)imidazo[1,2-c]pyrimidine-2-carbonitrile], the pIC50 was 6.30 to 7.00.

`N#Cc1cn2c(NCc3c(F)ccc4c3CCO4)ncc(-c3ccc(-c4nnn[nH]4)cc3)c2n1` [Example 190, 8-(4-(1H-tetrazol-5-yl)phenyl)-5-(((5-fluoro-2,3-dihydrobenzofuran-4-yl)methyl)amino)imidazo[1,2-c]pyrimidine-2-carbonitrile]: the pIC50 is > 7.00.

For the compound `COCCOc1ncc(-c2cnc(NCc3c(F)ccc4c3CCO4)n3cc(C#N)nc23)cn1` [Example 191, 5-(((5-fluoro-2,3-dihydrobenzofuran-4-yl)methyl)amino)-8-(2-(2-methoxyethoxy)pyrimidin-5-yl)imidazo[1,2-c]pyrimidine-2-carbonitrile], the pIC50 was 6.30 to 7.00.

Regarding `Cc1ccc(-c2cnc(NCc3c(F)ccc4c3CCO4)n3cc(C#N)nc23)c(C)c1` [Example 192, 8-(2,4-dimethylphenyl)-5-(((5-fluoro-2,3-dihydrobenzofuran-4-yl)methyl)amino)imidazo[1,2-c]pyrimidine-2-carbonitrile], the pIC50 is < 6.30.

`N#Cc1cn2c(NCc3c(F)ccc4c3CCO4)ncc(-c3ccnn3C3CC3)c2n1` [Example 193, 8-(1-cyclopropyl-1H-pyrazol-5-yl)-5-(((5-fluoro-2,3-dihydrobenzofuran-4-yl)methyl)amino)imidazo[1,2-c]pyrimidine-2-carbonitrile]: the negative-log IC50 (pIC50) is > 7.00.

In turn, `Cn1nccc(-c2cnc(NCc3c(F)ccc4c3CCO4)n3cc(C#N)nc23)c1=O` [Example 194, 5-(((5-fluoro-2,3-dihydrobenzofuran-4-yl)methyl)amino)-8-(2-methyl-3-oxo-2,3-dihydropyridazin-4-yl)imidazo[1,2-c]pyrimidine-2-carbonitrile] had a pIC50 of 6.30 to 7.00.

Turning to `Cc1cc(CN(C)C)ncc1-c1cnc(NCc2c(F)ccc3c2CCO3)n2cc(C#N)nc12` [Example 195, 8-(6-((dimethylamino)methyl)-4-methylpyridin-3-yl)-5-(((5-fluoro-2,3-dihydrobenzofuran-4-yl)methyl)amino)imidazo[1,2-c]pyrimidine-2-carbonitrile], the pIC50 is > 7.00.

For `CNCc1ccc(-c2cnc(NCc3c(F)ccc4c3CCO4)n3cc(C#N)nc23)c(C)c1` [Example 196, 5-(((5-fluoro-2,3-dihydrobenzofuran-4-yl)methyl)amino)-8-(2-methyl-4-((methylamino)methyl)phenyl)imidazo[1,2-c]pyrimidine-2-carbonitrile], the pIC50 is 6.30 to 7.00.

Take `CNCc1ccc(-c2cnc(NCc3c(F)ccc4c3CCO4)n3cc(C#N)nc23)cc1F` [Example 197, 5-(((5-fluoro-2,3-dihydrobenzofuran-4-yl)methyl)amino)-8-(3-fluoro-4-((methylamino)methyl)phenyl)imidazo[1,2-c]pyrimidine-2-carbonitrile]: the pIC50 was > 7.00.

On to `CN(C)Cc1ccc(-c2cnc(NCc3c(F)ccc4c3CCO4)n3cc(C#N)nc23)c(C#N)c1` [Example 198, 8-(2-cyano-4-((dimethylamino)methyl)phenyl)-5-(((5-fluoro-2,3-dihydrobenzofuran-4-yl)methyl)amino)imidazo[1,2-c]pyrimidine-2-carbonitrile], for which the pIC50 is > 7.00.

With `CC(c1ccc(-c2cnc(NCc3c(F)ccc4c3CCO4)n3cc(C#N)nc23)cc1)N(C)C` (centres unmarked) [Example 199, 8-(4-(1-(dimethylamino)ethyl)phenyl)-5-(((5-fluoro-2,3-dihydrobenzofuran-4-yl)methyl)amino)imidazo[1,2-c]pyrimidine-2-carbonitrile], the pIC50 is > 7.00.

`Cc1cc(-c2cnc(NCc3c(F)ccc4c3CCO4)n3cc(C#N)nc23)ccc1CN(C)C` [Example 200, 8-(4-((dimethylamino)methyl)-3-methylphenyl)-5-(((5-fluoro-2,3-dihydrobenzofuran-4-yl)methyl)amino)imidazo[1,2-c]pyrimidine-2-carbonitrile]: the pIC50 was 6.30 to 7.00.

As to `CN(C)Cc1ccc(-c2cnc(NCc3c(F)ccc4c3CCO4)n3cc(C#N)nc23)cc1C#N` [Example 201, 8-(3-cyano-4-((dimethylamino)methyl)phenyl)-5-(((5-fluoro-2,3-dihydrobenzofuran-4-yl)methyl)amino)imidazo[1,2-c]pyrimidine-2-carbonitrile], the pIC50 was > 7.00.

Consider `[2H]C([2H])([2H])N(Cc1ccc(-c2cnc(NCc3c(F)ccc4c3CCO4)n3cc(C#N)nc23)c(C)c1)C([2H])([2H])[2H]` [Example 202, 8-(4-((bis(methyl-d3)amino)methyl)-2-methylphenyl)-5-(((5-fluoro-2,3-dihydrobenzofuran-4-yl)methyl)amino)imidazo[1,2-c]pyrimidine-2-carbonitrile], for which the pIC50 was > 7.00.

`N#Cc1cn2c(NCc3c(F)ccc4c3CCO4)ncc(-c3ccc4c(c3)CCNC4)c2n1` [Example 203, 5-(((5-fluoro-2,3-dihydrobenzofuran-4-yl)methyl)amino)-8-(1,2,3,4-tetrahydroisoquinolin-6-yl)imidazo[1,2-c]pyrimidine-2-carbonitrile] showed a pIC50 of 6.30 to 7.00.

Consider `N#Cc1cn2c(NCc3c(F)ccc4c3CCO4)ncc(-c3ccc(C4CCCN4)cc3)c2n1` (centres unmarked) [Example 204, 5-(((5-fluoro-2,3-dihydrobenzofuran-4-yl)methyl)amino)-8-(4-(pyrrolidin-2-yl)phenyl)imidazo[1,2-c]pyrimidine-2-carbonitrile], for which the pIC50 was 6.30 to 7.00.

As for `N#Cc1cn2c(NCc3c(F)ccc4c3CCO4)ncc(-c3ccc4c(c3)CNC4)c2n1` [Example 205, 5-(((5-fluoro-2,3-dihydrobenzofuran-4-yl)methyl)amino)-8-(isoindolin-5-yl)imidazo[1,2-c]pyrimidine-2-carbonitrile], the pIC50 is 6.30 to 7.00.

In turn, `COCCOc1ccc(-c2cnc(NCc3c(F)ccc4c3CCO4)n3cc(C#N)nc23)c(C)c1` [Example 206, 5-(((5-fluoro-2,3-dihydrobenzofuran-4-yl)methyl)amino)-8-(4-(2-methoxyethoxy)-2-methylphenyl)imidazo[1,2-c]pyrimidine-2-carbonitrile] gave a pIC50 of 6.30 to 7.00.

For `Cc1cc(CN(C)C)ccc1-c1cnc(NCc2c(F)ccc3c2C(O)CO3)n2cc(C#N)nc12` (centres unmarked) [Example 207, 8-(4-((dimethylamino)methyl)-2-methylphenyl)-5-(((5-fluoro-3-hydroxy-2,3-dihydrobenzofuran-4-yl)methyl)amino)imidazo[1,2-c]pyrimidine-2-carbonitrile], the pIC50 is > 7.00.

Regarding `CNC(=O)c1cc(-c2cnc(NCc3c(F)ccc4c3CCO4)n3cc(C#N)nc23)n(C)n1` [Example 208, 5-(2-cyano-5-(((5-fluoro-2,3-dihydrobenzofuran-4-yl)methyl)amino)imidazo[1,2-c]pyrimidin-8-yl)-N,1-dimethyl-1H-pyrazole-3-carboxamide], the pIC50 was > 7.00.

For `CN(C)Cc1cc(-c2cnc(NCc3c(F)ccc4c3CCO4)n3cc(C#N)nc23)n(C)n1` [Example 210, 8-(3-((dimethylamino)methyl)-1-methyl-1H-pyrazol-5-yl)-5-(((5-fluoro-2,3-dihydrobenzofuran-4-yl)methyl)amino)imidazo[1,2-c]pyrimidine-2-carbonitrile], the pIC50 is > 7.00.
